In brackets after ≈: the same amount, converted by molar mass.
Key:
T. vaginalis = test system: T. vaginalis; design: method as in PMID 29390009; details: cited from earlier work
NIH/3T3 cells = details: mouse, 24 h, 100 µM
Experimental: (§1) Cultures of Human foreskin fibroblast (HFF; HFF-1 ATCC® SCRC-1041™), Madin–Darby bovine kidney (MDBK; ECACC) and mouse embryonic fibroblast (NIH/3T3; ATCC® CRL-1658™) cell lines were retrieved from −80 °C stock and cultured continuously at 37 °C under atmosphere 5% CO2 in our laboratory. The NIH/3T3 and HFF cell lines were maintained in Dulbecco Modified Eagle’s Medium (DMEM; Gibco, Grand Island, NY, USA), while MDBK cell line grown in Minimum Essential Medium Eagle (MEM; Gibco). Each medium was treated with 1% glutamine, 10% fetal bovine serum and 0.5% penicillin/streptomycin (Gibco). Every 72 to 96 h, the medium was replaced, and once 80% confluence was reached, the cell collection was performed by sub-culture protocol. To confirm the absence of mycoplasma contamination, 4,6-diamidino-2-phenylindole dihydrochloride (Sigma-Aldrich) stain was used [9].
(§2) The cell viability test was conducted in a 96-well plate as described elsewhere [4, 9, 51, 52]. Briefly, an aliquot of (100 µL) cells was implanted at a concentration of 5 × 10^4 cells/mL in DMEM or MEM with fetal bovine serum and incubated overnight under atmosphere 5% CO2 at 37 °C for attachment. […] After a 24-h incubation, Cell Counting Kits-8 (CCK-8) (10 µL) was added per well followed by the incubation of the plate for another 3 hours and a microplate reader was used to measure the absorbance at 450 nm.

MDBK cells = test: cells; format: cell-based, bovine
Experimental: as §1, §2

HFF cells = format: cell-based; details: human, 24 h, 100 µM
Experimental: as §1, §2

[1] = test system: Trypanosoma brucei brucei; design: method as in PMID 28654013; details: cited from earlier work
[2] = test system: L. donovani promastigotes; design: method as in PMID 2360830; details: read-out: IC50 leishmanicidal effect; cited from earlier work
B. microti = test: in vivo chemotherapeutic efficacy in B. microti-infected BALB/c mice
Experimental: MEBV and AERC were examined for their in vivo chemotherapeutic efficacy using B. microti-infected BALB/c mice according to a procedure described elsewhere. Briefly, twenty-five mice were placed in an environment free from pathogens with 22 °C temperature and adjusted humidity and under 12 h light and 12 h darkness and randomly distributed into five groups. All mice in groups 2 through 5 obtained 500 μL of 1 × 10^7 B. microti-iRBC by intraperitoneal (i.p.) injection. Group 1 served as a negative control and was neither infected nor treated. At 1% parasitemia, drug treatment of the mice […]. continuing for five days. Group 2 act as a positive control group and received 95% double-distilled water (DDW) and 5% DMSO. Groups 3 and 4 administered 150 mg/kg body weight (BW) of MEBV and AERC by the oral route, respectively. […] Furthermore, the hematological parameters, including HGB, RBCs, and HCT percentage were examined every four days using an automatic hematology analyzer (Celltac α MEK-6450, Nihon Kohden, Tokyo, Japan) to detect the effect of MEBV and AERC on the retrogression of anemia related to Babesia infection. […]

In the case of `C=C1CC/C=C(\C)CC[C@@H]2[C@@H]1CC2(C)C` [β-caryophyllene], the “IC50 growth of T. vaginalis” value (T. vaginalis) is listed as 100 µg/mL.
With `O=C1C(O)=C([C@H]2CC[C@H](c3ccc(Cl)cc3)CC2)C(=O)c2ccccc21` [ATV, atovaquone] the “effect on cell viability” value (NIH/3T3 cells) was “neither DMA nor ATV (final concentration 100 µM) restricted the viability”, the “effect on cell viability” value (MDBK cells; bovine, 24 h, 100 µM) was “neither DMA nor ATV (final concentration 100 µM) restricted the viability” and the “effect on cell viability” value (HFF cells) was “neither DMA nor ATV (final concentration 100 µM) restricted the viability”.
In the case of `CC(C)=CCCC(C)c1ccc(C)cc1` (stereo not drawn) [α-curcumene], the “IC50 growth of T. vaginalis” value (T. vaginalis) is listed as 100 µg/mL and the IC50 antitrypanosomal activity [1] is listed as 13.38 µg/mL (≈ 66.1 µM).
With `CC(C)/N=c1\cc2n(-c3ccc(Cl)cc3)c3ccccc3nc-2cc1Nc1ccc(Cl)cc1` [CLF, clofazimine] the EC50 (MDBK cells; Bos taurus, MDBK cells, reference drug, read-out: EC50 MDBK cell viability) was 34 ± 3.4 µM.
For `COc1ccc2cc3[n+](cc2c1OC)CCc1cc2c(cc1-3)OCO2` [berberine], the IC50 [2] is listed as 7.1 µM.
For `C=CCc1ccc(OC)c(OC)c1` [methyleugenol], the “IC50 growth of T. vaginalis” value (T. vaginalis) is given as 100 µg/mL.
For `CC(=O)NCC(=O)O.CC(=O)NCC(=O)O.N=C(N)c1ccc(N=NNc2ccc(C(=N)N)cc2)cc1` [DMA, diminazene aceturate], the peak parasitemia level (B. microti; 25 mg/kg BW, 5 days (day 4 to 8 p.i.), B. microti-infected BALB/c mice) was 5% and the “inhibition of B. microti multiplication” value (B. microti; 25 mg/kg, eighth day post-infection) was 92%.

— publication PMC7037273, “Phytochemical Screening and Antiprotozoal Effects of the Methanolic Berberis Vulgaris and Acetonic Rhus Coriaria Extracts” (Molecules, 2020)
